Patent US7709488B2, “Imidazopyridine-derivatives as inducible no-synthase inhibitors” (Altana Pharma AG, priority 2003, dated 2010)

What was measured:
[1] = target: human inducible NO-synthase (Homo sapiens, UniProt P35228); assay: Measurement of inducible NO-synthase activity ([3H]arginine conversion, crude cytosolic fraction); format: biochemical; details: 0.1 μM arginine, 45 to 60 min at 37° C., pH 7.2; read-out: Inhibition of iNOS activity [measured as −logIC50 (mol/l)] (converted)
Description: Measurement of Inducible NO-Synthase Activity
The assay is performed in 96-well microtiter F-plates (Greiner, Frickenhausen, FRG) in a total volume of 100 μl in the presence of 100 nM calmodulin, 226 μM CaCl2, 477 μM MgCl2, 5 μM flavin-adenine-dinucleotide (FAD), 5 μM flavin mononucleotide (FMN), 0.1 mM NADPH, 7 mM glutathione, 10 μM BH4 and 100 mM HEPES pH 7.2. Arginine concentrations are 0.1 μM for enzyme inhibition experiments. 150000 dpm of [^3H]arginine are added to the assay mixture. Enzyme reaction is started by the addition of 4 μg of a crude cytosolic fraction containing human inducible NO-synthase and the reaction mixture is incubated for 45 to 60 min at 37° C. Enzyme reaction is stopped by adding 10 μl of 2M MES-buffer pH 5.0. 50 μl of the incubation mixture are transferred into a MADP N65 filtration microtiter plate (Millipore, Eschbom, FRG) containing already 50 μl of AG-50W-X8 cation exchange resin (Biorad, München, FRG). The resin in the Na loaded form is pre-equilibrated in water and 70 μl (corresponding to 50 μl dry beads) are pipetted under heavy stirring with a 8 channel pipette into the filtration plate. After pipetting 50 μl of the enzyme reaction mixture onto the filtration plates, the plates are placed on a filtration manifold (Porvair, Shepperton, UK) and the flow through is collected in Pico scintillation plates (Packard, Meriden, Conn.). The resin in the filtration plates is washed with 75 μl of water (1×50 μl and 1×25 μl) which is also collected in the same plate as the sample. The total flow through of 125 μl is mixed with 175 μl of Microscint-40 scintillation cocktail (Packard) and the scintillation plate is sealed with TopSeal P-foil (Packard). Scintillation plates are counted in a scintillation counter.
For the measurement of inducible NO-synthase-inhibiting potencies of compounds increasing concentrations of inhibitors were included into the incubation mixture. IC50-values were calculated from the percent inhibition at given concentrations by nonlinear least square fitting.
The inhibitory values determined for the compounds according to the invention follow from the following table A, in which the compound numbers correspond to the example numbers.

Row | melting point | IC50 [1] | SMILES
1 | 219 to 220 °C | 43.7 nM | COc1ccnc(CCc2nc3cc(-c4ccc(S(=O)(=O)Nc5ccc(C)cc5)cc4)cnc3[nH]2)c1 [Compound 25, 4-{2-[2-(4-Methoxypyridin-2-yl)ethyl]-3H-imidazo[4,5-b]pyridin-6-yl}-N-p-tolyl-benzenesulfonamide]
2 | 215 to 216 °C | 34.7 nM | COc1ccnc(CCc2nc3cc(-c4ccc(S(=O)(=O)Nc5ccccc5OC)cc4)cnc3[nH]2)c1 [Compound 26, 4-{2-[2-(4-Methoxypyridin-2-yl)ethyl]-3H-imidazo[4,5-b]pyridin-6-yl}-N-(2-methoxyphenyl)-benzenesulfonamide]
3 | 221 to 222 °C | 45.7 nM | COc1ccnc(CCc2nc3cc(-c4ccc(S(=O)(=O)Nc5ccc(N(C)C)cc5)cc4)cnc3[nH]2)c1 [Compound 27, N-(4-Dimethylamino-phenyl)-4-{2-[2-(4-methoxypyridin-2-yl)ethyl]-3H-imidazo-[4,5-b]pyridin-6-yl}benzenesulfonamid]
